Reference: patent US9924723B2 (THE REGENTS OF THE UNIVERSITY OF COLORADO, A BODY CORPORATE, priority 2013, dated 2018)

What was measured:
[1] = Cadmium and chromium in corrosion product and pore water of treated field specimens (ICP-MS), pore water pH; assay type: physicochemical; settings: after 70 days, Experiment B
Procedure: Metal concentrations measured by inductively coupled plasma mass spectrometry (ICP-MS) of acid extracted samples.
Cadmium and chromium were measured in dry sieved corrosion products for the treated samples in Experiment B, and are presented both as ng/g dry sieved fines as well as μM in pore water (FIG. 9). These metals are typically present in Portland Cement at average concentrations of 0.34 ng/g Cd and 76 ng/g Cr. […] Aside from one chromium outlier at 71 days, metal concentrations in the dry fine material after 50 days stayed relatively constant between 400 and 800 ng/g.
Metal concentrations—micromolar levels of both cadmium and chomium—in pore water are also shown; these levels represent the concentrations which drive metal diffusion into bacterial cells on the corrosion front. Pore water concentrations increased to several μM after 70 days, and subsequently receded to less than 0.2 μM by the end of the experiment at 126 days (FIG. 9). This decrease is in pore water concentrations is due to a marked increase in surface moisture as the experiment progressed (up to 23% moisture), which diluted the released metal ions.

[2] = Leaching of metal from metal-carbon formulation in liquid media (total metal concentration); assay type: physicochemical
[3] = Metal desorption from pre-loaded GAC in phosphate or citrate buffer solutions at various pH; assay type: physicochemical
Procedure: Phosphate or citrate buffering was used to stabilize pH. Points represent the mean of three observations. Error bars indicate standard deviation.
The metal leaching behavior of the GAC impregnated with Cd^2+ or CrO4^2− ions was determined using phosphate or citrate buffer solutions as described herein. […] This is consistent with studies that found cadmium and other metal cations sorbed to activated carbon most strongly at high pH. […] Also, chromate anions have increased sorption to activated carbon at low pH.
By delivering toxicity in the pH range where this transition between community types occurs, the metal-carbon formulations can prevent acidophile colonization. […] Cadmium cation sorption is more ideal for this corrosion prevention application because metal remains in solution as corrosion progresses to pH values below 6.

[4] = between pH 1 and pH 6; cited from earlier work
[5] = tested on: Halothiobacillus neapolitanus strains; settings: cited from earlier work
[6] = GAC impregnated with metal ions, phosphate or citrate buffer

| SMILES | Metal concentration in pore water [1] | Total metal concentration based on leaching experiments in media ([2]; pH 3) | Total metal concentration based on leaching experiments in media ([2]; pH 5) | pH below which desorption from GAC increases [3, 6] | Factor of increase of adsorption to activated carbon [4] | Sorption to GAC as function of pH [3, 6] | pH below which ions can resorb onto the carbon ([3]; pre-loaded GAC, buffered solutions) | Effect on thiosulfate oxidation [5] |
| --- | --- | --- | --- | --- | --- | --- | --- | --- |
| [Cr] [chromium] | several | 0.00456 mM | 0.000822 mM | – | – | – | – | – |
| [Cd] [cadmium] | several | 0.89 mM | 0.89 mM | below 6 | 10 | – | – | – |
| [O]=[Cr](=[O])([O-])[O-] [CrO4^−2] | – | – | – | – | – | sorb strongly at pH above 7 and pH below 5 | < 4 | inhibit |
